Data: publication PMC5691699, “Processing ‘Ataulfo’ Mango into Juice Preserves the Bioavailability and Antioxidant Capacity of Its Phenolic Compounds” (Nutrients, 2017)
Where two headings read alike, the source gives them in different places. One block for each molecule: values may come before it.

How the values were obtained:
clinical = details: for AUC/Dose: dose-adjusted AUC 0 to 6 h, n = 12
Text: Phenolics in plasma were quantified according to the method of Chen, Milbury, Lapsley, and Blumberg. […] Subsequently, phenolics were extracted with acetonitrile. After centrifugation, the supernatant was removed, dried with nitrogen gas, and reconstituted in the aqueous HPLC mobile phase, filtered using Ultrafree Durapore Centrifugal filter devices (0.22, Merck Millipore, Billerica, MA, USA), and injected into the HPLC- ECD system, using previously optimized chromatographic conditions. The mobile phases were 75 mM citric acid and 25 mM ammonium acetate in 90% water/10% acetonitrile (A), and 75 mM citric acid and 25 mM ammonium acetate in 50% water/50% acetonitrile (B).
Results are expressed as mean ± standard deviation (SD). The maximum concentration (Cmax) in plasma and the time to reach Cmax (Tmax) were visually identified. The area under the concentration-time curve (AUC) of plasma phenolics was calculated using the linear trapezoidal integration equation [24]. The differences in Cmax, Tmax, and AUC of phenolics between mango flesh and juice treatments were examined using an analysis of covariance, with time 0 values as the covariant, followed by the Tukey-Kramer multi-comparison test. The Number Cruncher Statistical System version 6.0 software (NCSS, NCSS LLC, Kaysville, UT, USA) was used to perform all statistical analyses.

[1] = Urinary excretion (0–24 h) of phenolic compounds after 'Ataulfo' mango flesh or juice, HPLC-ECD; details: for detection in urine: after mango flesh and juice consumption, 0–24 h; for urinary excretion, juice group versus flesh group: at 0–4 and 4–8 h, normalized to creatinine
[2] = in vivo
[3] = after mango flesh and juice consumption, 0–6 h
[4] = male, human, plasma, oral, 500 g, AUC, plasma, time 0 to 6 h, after 500 g mango flesh, n = 12, mean ± SD
[5] = male, human, plasma, oral, 500 g, Cmax, plasma, after 500 g mango flesh, healthy men, n = 12, mean ± SD
[6] = male, human, plasma, oral, 500 g, Tmax, plasma, after 500 g mango flesh, healthy men, n = 12, mean ± SD
[7] = male, human, plasma, oral, 721 g, AUC, plasma, time 0 to 6 h, after 721 g mango juice, n = 12, mean ± SD
[8] = male, human, plasma, oral, 721 g, Cmax, plasma, after 721 g mango juice, healthy men, n = 12, mean ± SD
[9] = male, human, plasma, oral, 721 g, Tmax, plasma, after 721 g mango juice, healthy men, n = 12, mean ± SD
[10] = plasma, after 500 g mango flesh
[11] = plasma, after 721 g mango juice
[12] = plasma, after 500 g mango flesh, healthy men, n = 12, mean ± SD
[13] = plasma, after 721 g mango juice, healthy men, n = 12, mean ± SD

detection in plasma (clinical; [3]): detected in plasma
AUC (clinical; [4]): 209 ± 24.5 ng·h/mL
Cmax (clinical; [5]): 49.7 ± 7.3 ng/mL
Tmax (clinical; [6]): 3.5 ± 1.4 h
AUC (clinical; [7]): 367 ± 131 ng·h/mL
Cmax (clinical; [8]): 109.7 ± 0.26 ng/mL
Tmax (clinical; [9]): 2.5 ± 1.8 h
higher absorption from mango juice (clinical; mango juice compared with flesh): 62%
AUC/Dose (clinical; [10]): 11.5 ± 1.78 (ng h/mL)/mg
AUC/Dose (clinical; [11]): 50.12 ± 15.5 (ng h/mL)/mg
Compound: O=C(/C=C/c1ccc(O)c(O)c1)O[C@@H]1C[C@](O)(C(=O)O)C[C@@H](O)[C@H]1O [Chlorogenic acid, chlorogenic acid]

Compound: COc1cc(/C=C/C(=O)O)ccc1O [Ferulic acid, ferulic acid]
detection in plasma (clinical; [3]): detected in plasma
Cmax (clinical; [12]): 16.5 ± 3.9 ng/mL
Tmax (clinical; [12]): 2.8 ± 2.1 h
Cmax (clinical; [13]): 32.7 ± 10.9 ng/mL
Tmax (clinical; [13]): 2.3 ± 1.5 h
AUC/Dose (clinical; [10]): 31.0 ± 9.63 (ng h/mL)/mg
AUC/Dose (clinical; [11]): 83.8 ± 30.2 (ng h/mL)/mg
AUC (clinical; plasma, time 0 to 6 h, after 500 g mango flesh, n = 12, mean ± SD): 60.2 ± 22.7 ng·h/mL
AUC (clinical; plasma, time 0 to 6 h, after 721 g mango juice, n = 12, mean ± SD): 133.4 ± 47.7 ng·h/mL
detection in urine [1]: detected in urine
urinary excretion, juice group versus flesh group [1]: significantly higher

Compound: O=C(O)c1cc(O)c(O)c(O)c1 [Gallic acid, gallic acid]
AUC (clinical; male, human, in vivo): 38.5 ± 14.5 ng·h/mL
Cmax (clinical; male, human, in vivo): 7.9 ± 4.7 ng/mL
AUC (clinical; male, human, in vivo, AUC): 36.9 ± 24.3 ng·h/mL
Cmax (clinical; male, human, in vivo, Cmax): 8.7 ± 1.7 ng/mL
Tmax (clinical; male, human, in vivo, Tmax, plasma, after 500 g mango flesh, healthy men, n = 12, mean ± SD): 4.4 ± 1.1 h
Tmax (clinical; male, human, in vivo, Tmax, plasma, after 721 g mango juice, healthy men, n = 12, mean ± SD): 3.5 ± 1 h

detection in plasma (clinical; [3]): detected in plasma
AUC (clinical; male, human, in vivo): 50.9 ± 11.0 ng·h/mL
Cmax (clinical; male, human, in vivo): 12.2 ± 0.2 ng/mL
Tmax (clinical; male, human, in vivo): 2.8 ± 1.9 h
AUC (clinical; male, human, in vivo, AUC): 53.1 ± 8.3 ng·h/mL
Cmax (clinical; male, human, in vivo, Cmax): 11.8 ± 2.1 ng/mL
Tmax (clinical; male, human, in vivo, Tmax): 4 ± 1.4 h
AUC/Dose (clinical; [10]): 221.2 ± 34.0 (ng h/mL)/mg
AUC/Dose (clinical; [11]): 282.7 ± 59.1 (ng h/mL)/mg
detection in urine [1]: not in urine
Compound: O=C(O)c1cc(O)ccc1O [Gentisic acid, gentisic acid]

detection in plasma (clinical; [3]): detected in plasma
AUC (clinical; [4]): 141 ± 73.9 ng·h/mL
Cmax (clinical; [5]): 30.8 ± 13.3 ng/mL
Tmax (clinical; [6]): 3.5 ± 2 h
AUC (clinical; [7]): 109 ± 5.4 ng·h/mL
Cmax (clinical; [8]): 34.5 ± 18 ng/mL
Tmax (clinical; [9]): 3.7 ± 1.7 h
greater absorption from mango flesh (clinical; mango flesh compared with juice): 49%
AUC/Dose (clinical; [10]): 344.8 ± 138.3 (ng h/mL)/mg
AUC/Dose (clinical; [11]): 204.90 ± 9.9 (ng h/mL)/mg
detection in urine [1]: not in urine
Compound: O=C(O)c1ccc(O)c(O)c1 [Protocatechuic acid, protocatechuic acid]

detection in urine [1]: found in urine
Compound: Oc1cccc(O)c1O [Pyrogallol, pyrogallol]

detection in plasma (clinical; [3]): not in plasma
detection in urine [1]: detected in urine
urinary AUC/dose excretion ([1]; compared with the other urinary phenolics, values higher in the juice group): Higher
Compound: COc1cc(C(=O)O)ccc1O [Vanillic acid, vanillic acid]

detection in urine [1]: detected in urine
urinary excretion, juice group versus flesh group [1]: significantly higher
Compound: O=C(O)/C=C/c1ccc(O)cc1 [p-coumaric acid]

detection in plasma (clinical; in vivo): not in plasma
urinary AUC/dose excretion ([2]; human): Higher
detection in urine [2]: detected in urine
Compound: COc1cc(/C=C/C(=O)O)cc(OC)c1O [sinapic acid]
